Read-outs that look alike come from different tables or passages of the source. Values belong to the compound of their own block, whether it stands above or below them.
Legend:
[1] = target: Aldose Reductase from Rat Crystalline Lens (Rattus norvegicus, UniProt P07943); test: biochemical; assay type: biochemical
Protocol: Aldose reductase was prepared from rat lenses in the following manner. Lenses (20 to 30) were homogenized in 20 volumes of 5 mM sodium phosphate buffer (pH 7.4), followed by centrifugation at 18,000×g for 5 min to remove insoluble materials. Solid ammonium sulfate was added to the supernatant fluid to 30% saturation. The suspension was centrifuged at 18,000×g for 10 min and the supernatant was recovered. Aldose reductase was precipitated from 30% saturated solution by the addition of solid ammonium sulfate to 75% saturation, and obtained by centrifugation. The precipitate was collected and suspended in 3.2M ammonium sulfate.
The enzyme solution was assayed by following the absorbance at 340 nm on a Shimadzu UV-2000 spectrophotometer equipped with a temperature-controlled cuvette chamber. The solution (0.1 ml) was added to a cuvette containing phosphate buffer (1.6 ml, pH 6.2, 0.1M final concentration) and NADPH (0.1 ml, 0.25 mM final concentration), and the cuvette was inserted into the spectrophotometer. The reaction was started by the addition of DL-glyceraldehyde (0.1 ml, 50 mM final concentration) to the cuvette, and the decrease of absorbance at 340 nm for 5 min at 25° C. was measured. […] Agents to be tested were dissolved with a minimal amount of dimethylsulfoxide and diluted to the desired concentration with purified water. The resulting solution (0.1 ml) was added to the cuvette. The reference blank (to correct for non-specific oxidation of NADPH and absorption of the agents) was prepared by using water instead of DL-glyceraldehyde solution.

[2] = tested on: Diamide-Treated Mice Lenses; test: Na+/K+ ratio and Ca2+ contents in diamide-treated mice lenses; assay type: cell-based, mouse (ddY); conditions: for Ca2+ content / K+ content / Na+ content / Na/K ratio: diamide-treated lenses, 1 mM agent; for Ca2+ content (in words) / Na+/K+ ratio (in words): 1 Mm (so in the source), vs control levels
Protocol: Male ddY mice, 6 weeks old, were killed by decapitation, and the […] were excised. The lenses were removed by a posterior approach and then transferred on a nylon net to a petri dish containing D-MEM medium (low glucose). The lenses were incubated at 37° C. for 19-20 hr in CO2 incubator under 5% CO2 -air and clear transparent lenses were collected to be used for following experiments. The lenses were incubated at 37° C. for 1.5 hr in 3 ml of isotonic HEPES buffer (10 mM HEPES, 136.2 mM NaCl, 5.3 mM KCl, 1.0 mM K2 HPO4, 1.7 mM CaC2 .cndot.2H2 O, 5.5 mM glucose pH 7.4) containing 1 mM diamide and the HEPES buffer without glucose. Those were transferred to an incubation test tube containing 3 ml of isotonic HEPES buffer (pH 7.4) with 1 mM DDC or GE. The diamide treated and non-treated controls were treated by the 5 hr-incubation without the above agents. The wet weight of these treated lenses were determined. Lenses were dried in vacuo at 100° C. for 8 hr, and then digested in 60% nitric acid (100 μl/lens) at 80° C. to degrade organic substances. One milliliter of purified water was added to the digests, and centrifuged at 3000×g for 10 min. Two tenth ml of the supernatant was mixed with 2 ml of purified water, and was used for measurement of Na^+ and K^+. One tenth milliliter of 100 μg/ml lanthanum chloride was added to the residual supernatant and used for measurement of Ca^2+, Na^+,K^+ and Ca^2+ contents in the lenses were determined by atomic absorption spectrometer (Hitachi 180-80, Tokyo, Japan).

[3] = tested on: Diamide-Treatment Mice Lenses; test: GSH content in diamide-treated mice lenses; assay type: cell-based, mouse (ddY); conditions: for GSH content: 1 mM diamide
Protocol: Male ddY mice, 6 weeks old, were killed by decapitation, and the globes were excised. The lenses were removed by a posterior approach and then transferred on a nylon net to an petri containing D-MEM medium (low glucose). The lenses were incubated at 37 ° C. for […] and clear transparent lenses were collected to be used for following experiments. […] Those were transferred to an incubation test tube containing 3 ml of isotonic HEPES buffer (pH 7.4) containing 5.5 mM glucose with 1 mM DDC or GE (glutathione isopropyl ester). The diamide treated and non-treated controls were treated by the 5 hr--incubation without the above agents. The wet weight of these treated lenses were determined.
The treated lenses were homogenized with 0.5 ml of purified water by Teflon homogenizer. GSH in the homogenate was determined by the method of Beutler using DTNB and the HPLC method followed.
Fifty microliter of the lens homogenate were added into 100 μl of acetonitrile containing 100 μg of sodium pantothenate (internal standard) and centrifuged at 12,000 rpm for 10 min. The supernatant solution (10 μl) was injected into a HPLC apparatus, Shimadzu LC-10AD equipped with a column oven, CTO-6A and the chromatography were performed under the conditions: a column of Supersphere 100RP-18 (particle size: 4 μm, column size: 4.0×250 mm), mobile phase of 5% methanol containing 1.0% TFA, flow rate of 1 ml/min, and column temperature at 35° C.

rabbit cornea = test: In vitro transcorneal penetration of DDC from liposomes; assay type: in vitro ADME
Protocol: Male rabbit, 2.0 kg of body weight was sacrificed by a injection of lethal dose of pentobarbital into a […] and then two eyeballs were removed from […]. The cornea was set to the cell in which donor side was filled with liposomes containing DSF and in reservoir side with 10 mM HEPES buffer (pH 7.4) containing 136 mM NaCl, 5.3 mM KCl, 1.0 mM K2 HPO4, 1.7 mM CaCl2 and 5.5 mM glucose, shown in FIG. 2. The penetration was carried out at 37° C. for 0-6 hr. The sample (50 μl) was withdrawn from reservoir side at the indicated times. DDC in the sample was determined by the HPLC method (FIG. 2).

[4] = pH 6.2, 25° C., DL-glyceraldehyde substrate, read-out: IC50

SMILES: CCN(CC)C(=S)[S-].[Na+] [DDC-Na, Sodium diethyldithiocarbamate]
- IC50 [1]: 2600 µM
- Ca2+ content [2]: 1.09 ± 0.33 mmol/kg of H2 O
- K+ content [2]: 86.25 ± 4.02 mmol/kg of H2 O
- Na+ content [2]: 36.56 ± 4.38 mmol/kg of H2 O
- Na/K ratio [2]: 0.43 ± 0.07
- GSH content ([3]; DTNB method, 1 mM agent): 9.8 μg/lens
- GSH content ([3]; HPLC method, 1 mM agent): 3.9 μg/lens

SMILES: CO[C@@]1(NC(=O)CSCC#N)C(=O)N2C(C(=O)O)=C(CSc3nnnn3C)CS[C@@H]21 [CMZ, cefmetazole]
- inhibitory activity against rat lens aldose reductase (in words) [1]: lower inhibitory activities
- IC50 [1, 4]: 450 µM
- Ca2+ content (in words) [2]: restored completely
- Na+/K+ ratio (in words) [2]: restored completely
- Ca2+ content [2]: 1.11 ± 0.36 mmol/kg of H2 O
- K+ content [2]: 84.91 ± 10.06 mmol/kg of H2 O
- Na+ content [2]: 40.59 ± 10.16 mmol/kg of H2 O
- Na/K ratio [2]: 0.50 ± 0.19

SMILES: CCN(CC)C(=S)SSC(=S)N(CC)CC [DSF, tetraethylthiuram disulfide]
- inhibitory activity against rat lens aldose reductase (in words) [1]: lower inhibitory activities
- IC50 [1, 4]: 120 µM

- inhibitory activity against rat lens aldose reductase (in words) [1]: lower inhibitory activities
- IC50 [1, 4]: 17.5 µM
SMILES: O=C(O)c1cc(O)c2c3nc4ccccc4oc-3cc(=O)c2n1 [Pirenoxine (Catalin), Pirenoxine]

SMILES: O[C@H](CS)[C@H](O)CS (relative stereo) [DTT]
- Ca2+ content (in words) [2]: restored completely
- Na+/K+ ratio (in words) [2]: restored completely

SMILES: CC(C)OC(=O)CNC(=O)[C@H](CS)NC(=O)CC[C@H](N)C(=O)O [GE, Glutathione isopropyl ester]
- inhibitory activity against rat lens aldose reductase (in words) [1]: lower inhibitory activities
- IC50 [1, 4]: 760 µM
- Ca2+ content (in words) [2]: restored completely
- Na+/K+ ratio (in words) [2]: restored completely
- Ca2+ content [2]: 1.39 ± 0.30 mmol/kg of H2 O
- K+ content [2]: 79.67 ± 8.63 mmol/kg of H2 O
- Na+ content [2]: 51.60 ± 9.57 mmol/kg of H2 O
- Na/K ratio [2]: 0.67 ± 0.20
- total GSH in diamide-treated lenses (in words) ([3]; DTNB method, 1 mM agent): restored by the control GSH level
- GSH content ([3]; DTNB method, 1 mM agent): 10.3 μg/lens
- restoring of GSH (in words) ([3]; HPLC method): restoring of GSH
- GSH content ([3]; HPLC method, 1 mM agent): 4.0 μg/lens

SMILES: C[C@@H]1O[C@@H](Oc2c(-c3ccc(O)c(O)c3)oc3cc(O)cc(O)c3c2=O)[C@H](O)[C@H](O)[C@H]1O [Quercitrin]
- IC50 [1]: 0.26 µM
- inhibitory activity against rat lens aldose reductase (in words) [1]: lower inhibitory activities

- IC50 [1, 4]: 1000 µM
SMILES: CC(=C(CCO)SSCC1CCCO1)N(C=O)Cc1cnc(C)nc1N (stereo in doubt) [Frusultiamine (Alinamine F), Frusultiamine]

- IC50 [1, 4]: 1550 µM
SMILES: N[C@@H](CCC(=O)N[C@@H](CS)C(=O)NCC(=O)O)C(=O)O [Glutathione (GSH), Glutathione]

SMILES: CCN(CC)C(=S)S [DDC, Diethyldithiocarbamate]
- DDC content in the reservoir solution relative to that at pH 8.0 (rabbit cornea; pH 6.5, six hours after incubation): one third
- effect of BSA on DDC penetration (in words) (rabbit cornea; pH 8.0, 1.75% BSA in donor solution): did not affect

- IC50 [1, 4]: 1350 µM
SMILES: CC(S)C(=O)NCC(=O)O (stereo not shown) [Tiopronin]
